Experimental data as given in patent US20070105837A1, “Novel derivatives of 4a,5,9,10,11,12-hexahydrobenzofuro[3a,3,2][2]-benzazepine, method for the production thereof and use thereof in the production of medicaments” (priority 2003, published 2007).
Counter-ions that a name gives are not always drawn. Like-named read-outs stand apart in the source and are kept apart here.

Columns and labels:
acetylcholinesterase = acetylcholinesterase (Homo sapiens, UniProt P22303); test: biochemical
butyrylcholinesterase = butyrylcholinesterase (Homo sapiens, UniProt P06276); test: biochemical
[1] = read-out: Acetylcholinesterase IC-50
[2] = read-out: Butyrylcholinesterase IC-50

Chain of butyrylcholinesterase (P06276 29-602): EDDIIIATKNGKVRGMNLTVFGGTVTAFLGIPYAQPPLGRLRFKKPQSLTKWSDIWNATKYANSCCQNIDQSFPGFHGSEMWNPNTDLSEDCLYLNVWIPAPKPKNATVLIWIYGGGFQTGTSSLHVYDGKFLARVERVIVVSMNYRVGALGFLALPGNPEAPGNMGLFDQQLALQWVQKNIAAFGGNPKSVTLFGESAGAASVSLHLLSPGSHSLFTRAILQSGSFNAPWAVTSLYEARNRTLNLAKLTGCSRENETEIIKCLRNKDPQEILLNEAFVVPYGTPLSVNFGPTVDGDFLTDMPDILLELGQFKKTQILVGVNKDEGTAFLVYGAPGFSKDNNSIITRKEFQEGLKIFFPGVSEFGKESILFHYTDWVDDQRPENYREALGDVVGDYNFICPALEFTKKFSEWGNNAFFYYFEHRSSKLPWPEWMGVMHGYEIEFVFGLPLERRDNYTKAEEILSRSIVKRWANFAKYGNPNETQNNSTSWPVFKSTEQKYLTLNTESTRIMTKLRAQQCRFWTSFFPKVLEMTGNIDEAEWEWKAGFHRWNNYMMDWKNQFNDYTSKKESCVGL
Chain of acetylcholinesterase (P22303 32-614, species assumed): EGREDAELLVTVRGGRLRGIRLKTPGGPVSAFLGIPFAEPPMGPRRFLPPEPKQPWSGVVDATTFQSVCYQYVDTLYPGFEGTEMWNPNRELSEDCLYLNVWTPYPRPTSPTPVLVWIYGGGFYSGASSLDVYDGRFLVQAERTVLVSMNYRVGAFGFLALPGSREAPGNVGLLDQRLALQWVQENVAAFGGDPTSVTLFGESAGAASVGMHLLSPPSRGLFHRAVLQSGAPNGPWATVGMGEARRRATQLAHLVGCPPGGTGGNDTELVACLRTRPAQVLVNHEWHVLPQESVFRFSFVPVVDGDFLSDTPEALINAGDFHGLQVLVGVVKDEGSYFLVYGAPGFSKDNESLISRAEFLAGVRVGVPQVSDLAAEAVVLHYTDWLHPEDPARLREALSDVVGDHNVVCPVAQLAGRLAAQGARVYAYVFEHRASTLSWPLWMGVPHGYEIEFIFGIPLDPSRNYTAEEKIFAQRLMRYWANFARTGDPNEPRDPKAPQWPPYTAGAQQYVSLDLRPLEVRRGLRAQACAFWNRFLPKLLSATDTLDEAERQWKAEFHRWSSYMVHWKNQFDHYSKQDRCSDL

| Structure (SMILES) | IC50 (acetylcholinesterase; [1]) | IC50 (butyrylcholinesterase; [2]) | IC50 (acetylcholinesterase) | IC50 (butyrylcholinesterase) |
| --- | --- | --- | --- | --- |
| CNC(=S)N1CC[C@]23C=C[C@H](O)C[C@H]2Oc2c(OC)cc(Br)c(c23)C1 [Example 4, (4aR,6R,8aR)-1-brorno-4a,5,9,10-tetrahydro-6-hydroxy-3-methoxy-6H-[1]benzofuro-[3a,3,2-ef][2]benzazepine-11(12H)-thiocarbonic acid methylamide] | > 100 µM | > 100 µM |  |  |
| COc1cc(Br)c2c3c1O[C@@H]1C[C@H](O)C=C[C@]31CCN(Cc1ccccc1)C2 [Example 6, (4aR,6S,8aR)-11-benzyl-1-bromo-4a,5,9,10,11,12-hexahydro-3-methoxy-6H-[1]benzofuro[3a,3,2-ef][2]benzazepin-6-ol] | > 100 µM | 19 µM |  |  |
| COC(=O)CCC(=O)N1CC[C@]23C=C[C@@H](O)C[C@H]2Oc2c(OC)cc(Br)c(c23)C1 [Example 9, Methyl-4-((4aR,6S,8aR)-1-bromo-4a,5,9,10,11,12-hexahydro-6-hydroxy-3-methoxy-6H-benzofuro[3a,3,2-ef][2]benzazepine-11-yl)gamma-oxobutyrate] | > 100 µM | > 100 µM |  |  |
| COc1cc(Br)c2c3c1O[C@@H]1C[C@H](O)C=C[C@]31CCN(CCCN)C2 [Example 10, (4aR,6S,8aR)-11-(4-aminopropyl)-3-methoxy-5,6,9,10,11,12-hexahydro-4aH-[1]benzofuro[3a,3,2-et][2]benzazepin-6-ol, methane sulfonate] | > 100 µM | > 100 µM |  |  |
| CNC(=S)N1CC[C@]23C=C[C@@H](O)C[C@H]2Oc2c(OC)cc(Br)c(c23)C1 [Example 11, (4aR,6S,8aR)-1-bromo-4a,5,9,10-tetrahydro-6-hydroxy-3-methoxy-6H-[1]benzofuro-[3a,3,2-et][2]benzazepine-11(12H)-thiocarbonic acid methylamide] | > 100 µM | > 100 µM |  |  |
| COc1ccc2c3c1O[C@H]1C[C@H](O)C=C[C@@]31CCN(C(=O)NC(C)C)C2 [Example 14] | > 100 µM | > 100 µM |  |  |
| COc1ccc2c3c1O[C@H]1C[C@H](O)C=C[C@@]31CCN(c1ncccn1)C2 [Example 16, (4aS,6S,8aS)-4a,5,9,10,11,12-hexahydro-3-methoxy-11-(2-pyrimidinyl)-6H-[1]benzofuro[3a,3,2-ef][2]benzazepin-6-ol] | > 100 µM | > 100 µM |  |  |
| C#CCN1CC[C@@]23C=C[C@@H](O)C[C@@H]2Oc2c(OC)ccc(c23)C1 [Example 18, (4aS,6S,8aS)-4a,5,9,10,11,12-hexahydro-3-methoxy-11-propargyl-6H-[1]benzofuro[3a,3,2-ef][2]benzazepin-6-ol] | > 100 µM | > 100 µM |  |  |
| C=CCNC(=S)N1CC[C@@]23C=C[C@@H](O)C[C@@H]2Oc2c(OC)ccc(c23)C1 [Example 20, (4aS,6S,8aS)-6-hydroxy-3-methoxy-4a,5,9,10-tetrahydro-6H-[1]benzofuro[3a,3,2-ef][2]benzazepine-11(12H)-thiocarbonic acid allylamide] | > 100 µM | > 100 µM |  |  |
| COc1ccc2c3c1O[C@H]1C[C@H](O)C=C[C@@]31CCN(C(N)=O)C2 [Example 21, (4aS,6S,8aS)-4a,5,9,10-tetrahydro-6-hydroxy-3-methoxy-6H-[1]benzofuro[3a,3,2-ef][2]benzazepine-11(12H)-carboxamide] | > 100 µM | > 100 µM |  |  |
| COc1ccc2c3c1O[C@@H]1C[C@@H](O)C=C[C@]31CCN(C(N)=O)C2 [Example 25, (4aR,6R,8aR)-4a,5,9,10-tetrahydro-6-hydroxy-3-methoxy-6H-[1]benzofuro[3a,3,2-ef][2]benzazepine-11(12H)-carboxamide] | > 100 µM | > 100 µM |  |  |
| CCN1CC[C@]23C=C[C@H](O)C[C@H]2Oc2c(OC)ccc(c23)C1 [Example 26, (4aR,6R,8aR)-4a,5,9,10,11,12-hexahydro-3-methoxy-11-ethyl-6H-[1]benzofuro[3a,3,2,ef][2]benzazepin-6-ol] |  |  | > 100 µM | > 100 µM |
| COc1ccc2c3c1O[C@@H]1C[C@@H](O)C=C[C@]31CCN(/C(=N/C#N)SC)C2 [Example 27, Methyl (4aR,6R,8aR)-N11-cyano-6-hydroxy-3-methoxy-4a,5,9,10-tetrahydro-6H-[1]benzofuro [3a,3,2-ef][2]benzazepine-11(12H)-carboximidothioate] | > 100 µM | > 100 µM |  |  |
| COc1ccc2c3c1O[C@@H]1C[C@@H](N)C=C[C@]31CCN(C)C2 [Example 28, (4aR,6R,8aR)-4a,5,9,10,11,12-hexahydro-3-methoxy-11-methyl-6H-benzofuro[3a,3,2-ef][2]benzazepin-6-amine, dihydrochloride] | > 100 µM | > 100 µM |  |  |
| COc1ccc2c3c1O[C@@H]1C[C@H](O)C=C[C@]31CCN(CCCO)C2 [Example 29, (4aR,6S,8aR)-11-(3-hydroxypropyl)-3-methoxy-5,6,9,10,11,12-hexahydro-4aH-[1]benzofuro[3a,3,2-ef][2]benzazepin-6-ol] | > 100 µM | > 100 µM |  |  |
| COc1ccc2c3c1O[C@H]1C[C@@H](O)C=C[C@@]31CCN(CC(N)=O)C2 [Example 34, 2-((4aS,6R,8aS)-6-hydroxy-3-methoxy-5,6,9,10-tetrahydro-4aH-[1]benzofuro[3a,3,2-ef][2]benzazepine-11(12H)-yl)acetamide] | > 100 µM | 78 µM |  |  |
| COc1ccc2c3c1O[C@H]1C[C@@H](O)C=C[C@@]31CCN(c1ncccn1)C2 [Example 37, (4aS,6R,8aS)-3-methoxy-11-(2-pyrimidinyl)-5,6,9,10,11,12-hexahydro-4aH-[1]benzofuro [3a,3,2-ef][2]benzazepin-6-ol] | > 100 µM | > 100 µM |  |  |
| COc1ccc2c3c1O[C@H]1C[C@@H](O)C=C[C@@]31CCN(C(=O)CCC(=O)O)C2 [Example 39, ((4aS,6R,8aS)-4a,5,9,10,11,12-hexahydro-6-hydroxy-3-methoxy-6H-benzofuro[3a,3,2-ef][2]benzazepine-11--yl)gamma-oxobutyric acid] | > 100 µM | > 100 µM |  |  |
| COc1ccc2c3c1O[C@H]1C[C@@H](O)C=C[C@@]31CCN(c1nc(Cl)nc(Cl)n1)C2 [Example 42, (4aS,6R,8aS)-11-(4,6-dichloro-1,3,5,-triazin-2-yl)-3-methoxy-5,6,9,10,11,12-hexahydro-4aH-[1]benzofuro[3a,3,2-ef][2]benzazepin-6-ol] | > 100 µM | > 100 µM |  |  |
| COc1ccc2c3c1O[C@H]1C[C@@H](O)C=C[C@@]31CCN(CCCCN1CCCCC1)C2 [Example 50] |  |  | 0.036 µM | 0.61 µM |
| COc1cc(Br)c2c3c1O[C@H]1C[C@@H](O)C=C[C@@]31CCN(CCN1CCOCC1)C2 [Example 57, (4aS,6R,8aS)-1-bromo-4a,5,9,10,11,12-hexahydro-11-(2-(mopholin-4-yl)-ethyl)-3-methoxy-6H-[1]benzafuro[3a,3,2-ef][2]benzazepin-6-ol] |  |  | > 100 µM | 2.7 µM |
| COc1ccc2c3c1O[C@@H]1C=C(c4ccccc4)C=C[C@@]31CCN(C)C2 [Example 59, (4aS,8aS)-D5,6-4a,5,9,10,11,12-hexahydro-11-methyl-3-methoxy-6-phenyl-6H-[1]benzofuro[3a,3,2-ef][2]benzazepine] | 52 µM | 25 µM |  |  |
| COc1ccc2c3c1O[C@H]1C=C(C)C=C[C@@]31CCN(C)C2 [Example 60, (4aS,8aS)-D5,6--4a,5,9,10,11,12-hexahydro-6,11-dimethyl-3-methoxy-6H-[1]benzofuro[3a,3,2-ef][2]benzazepine] | 80 µM | 200 µM |  |  |
| COc1ccc2c3c1O[C@H]1C=C(C(C)C)C=C[C@@]31CCN(C)C2 [Example 61, (4aS,8aS)-D5,6-4a,5,9,10,11,12-hexahydro-6-(isopropyl)-11-methyl-3-methoxy-6H-[1]benzofuro [3a,3,2-ef][2]benzazepine] | > 100 µM | 9 µM |  |  |
